Two compounds from patent US11667946B2, “Detection of beta-hemolytic pathogens” (TEMASEK LIFE SCIENCES LABORATORY LIMITED, priority 2016, dated 2023) can be followed below.

For one series, the system named is a variety of bacteria. Kind of series: Culturing bacteria on BHI agar with free H33342. It counts as cell-based. The settings on record: 160 nM. How it is done: (§1) Uptake of free H33342 by bacteria: The uptake of free H33342 was investigated by repeating the experiment as above but replacing liposomal H33342 with free H33342 dye (final concentration, 160 nM). Sodium hexametaphosphate (305553, Sigma-Aldrich) was added to a concentration of up to 0.3% for membrane permeabilization experiments.

The subject of another series is gram-negative bacteria. Nature of the series: Uptake of free H33342 by bacteria on BHI agar. It counts as cell-based. How it is done:
as §1

The next series concerns gram-positive bacteria. Kind of series: Uptake of free H33342 by bacteria on BHI agar. It counts as cell-based. The settings on record: 160 nM, overnight. Here is the method: as §1
In a further series the test system is E. coli. Nature of the series: Membrane permeabilization with sodium hexametaphosphate (H33342 uptake). It counts as cell-based, Escherichia coli. The settings on record: H33342 agar with sodium hexametaphosphate. Here is the method:
as §1

For a further series, the system named is S. pyogenes. Described as above. It counts as cell-based, Streptococcus pyogenes. The settings on record: at 0.3%. How it is done: as §1

On to `CCOc1ccc(-c2nc3ccc(-c4nc5ccc(N6CCN(C)CC6)cc5[nH]4)cc3[nH]2)cc1` [H33342, Hoechst 33342], for which the lethality to bacteria entry with a variety of bacteria is recorded as “non-lethal”. In the series with gram-negative bacteria, the uptake of dye entry is recorded as “not taken up”. Further, the “colony association with / uptake of free dye” value in the series with gram-positive bacteria is recorded as “fluoresce blue”.
On to `O=P1([O-])OP(=O)([O-])OP(=O)([O-])OP(=O)([O-])OP(=O)([O-])OP(=O)([O-])O1.[Na+].[Na+].[Na+].[Na+].[Na+].[Na+]` [sodium hexametaphosphate], for which, in the series on E. coli, the “increase of colony fluorescence” value is recorded as 80%. Besides, the lethality to bacterium result with S. pyogenes is reported as “lethal”.
